Tests used:
[1] = Experimental: (§1) Pharmacokinetic compartment modelling was used on these novel substances, which had been derived from A. vasica and C. procera. The half-life was determined by the regions under plasma concentration, while the peak plasma concentration as well as timing acquired immediately from the dataset obtained in this investigation. Medicinal phyto-constituents were incorporated to the compartment model and an automatic calculating software tool was coupled with win-Nonlin ® Software to these bioactive chemicals.
Selected compounds were administered using a one-compartment oral dosage model, extract the one-compartment model parameters, the non-compartment model Parameters are necessary. The equations for non-compartment and one-compartment variables are given below respectively. • (1) w = (AUC, T max, T1/2) • (2) β = (ka, ke, V). • (3) β = (ke, V) • (4) CL po = V × Ke
If only oral clearance is required, CL po should be used instead of AUC. When it comes to IV dosage, however, just w = (AUC, T1/2) is required to claim the single dozes changes in (3).
Plasma concertation either orally or via an injection of selected compounds The natural antibiotic compounds by being taken into cells and either bacterial changes and it formed a tragedy to cells as expressed complete changes used in the formation of ATP in cells. The pharmacokinetic description of antibiotic compounds are shown in below equation and represented mathematically by equations (1), (2), (3), (4).(1) dSdt=rS,end+rS,ex-rS,elim (2) rS,end=f(t,S,I,G,E,F,A,KS,end) (3) rS,ex=g(t,MS) (4) rS,elim=h(t,S,I,E,KS,elim)

[2] = assay type: in vitro ADME
Experimental: as §1, with “[…].” for “vasica and C.”

Molecule	AUC, area under plasma concentration (Mean) [1]	Absorption capacity (Mean) [2]	Half life (Mean) [1]	T max (Mean) [1]
CCCCC/C=C\C/C=C\CCCCCCCC(=O)O[C@H]1CC[C@@]2(C)C(=CC[C@H]3[C@@H]4CC[C@H]([C@H](C)CC[C@@H](CC)C(C)C)[C@@]4(C)CC[C@@H]32)C1 [B-Sitosteryl linoleate]	0.1	–	–	–
S-allylcysteine acid	0.1	2.1	2.1	–
Myristyl diglucoside	–	–	–	0.2

From PMC9283668, “Natural and commercial antibiotic comparison with drugs modeling cell integrity cell stability of Bio-Kinetics changes under morphological topographies cells with lower toxicological characteristics for multidrug resistances problem” (Saudi Journal of Biological Sciences, 2022)
